According to patent publication US10131652B2, “Pyrimidinyloxy benzene derivatives as herbicides” (E. I. DU PONT DE NEMOURS AND COMPANY, priority 2014, dated 2018):

How the values were obtained:
Type in all cases: in vivo
[1] = system: Italian ryegrass (Lolium multiflorum); experiment: Test B pre-/postemergence plant response
Outline: (§1)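 Visual injury scores on a 0–100 scale (100 = complete control) relative to untreated plants, taken about 10 days post-treatment in greenhouse. Treatments were a directed preemergence soil spray and a postemergence spray at one- to two-leaf stage, using surfactant-containing solvent formulation.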

[2] = system: barnyardgrass (Echinochloa crus-galli); experiment: Test B pre-/postemergence plant response
Outline: as §1

[3] = system: corn (Zea mays); experiment: Test B pre-/postemergence plant response
Outline: as §1

[4] = system: giant foxtail (Setaria faberii); experiment: Test B pre-/postemergence plant response
Outline: as §1

[5] = system: kochia (Kochia scoparia); experiment: Test B pre-/postemergence plant response
Outline: as §1

[6] = system: pigweed (Amaranthus retroflexus); experiment: Test B pre-/postemergence plant response
Outline: as §1

[7] = system: ragweed (common ragweed, Ambrosia elatior); experiment: Test B pre-/postemergence plant response
Outline: as §1

[8] = system: wheat (Triticum aestivum); experiment: Test B pre-/postemergence plant response
Outline: as §1

[9] = system: blackgrass (Alopecurus myosuroides); experiment: Test B postemergence plant response
Outline: (§2)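 Visual injury ratings, 0 = no effect to 100 = complete control, versus untreated controls approximately 10 days after postemergence spraying in greenhouse. Plants were at one- to two-leaf stage, 2 to 10 cm tall, in loam soil/sand blend; a dash denotes no result.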

[10] = system: galium (catchweed bedstraw, Galium aparine); experiment: Test B postemergence plant response
Outline: as §2

[11] = system: barnyardgrass (Echinochloa crus-galli); experiment: Test C flooded paddy test plant response; settings: Flood, 250 g ai/ha; scale of 0 to 100 where 0 is no effect and 100 is complete control; 13 to 15 days
Outline: (§3)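 Scored visually on a 0–100 scale (100 = complete control) against untreated plants 13 to 15 days after treatment in the greenhouse. Compounds went into paddy water of pots flooded to 3 cm, holding 2-leaf-stage plants.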

[12] = system: ducksalad (Heteranthera limosa); experiment: Test C flooded paddy test plant response; settings: Flood, 250 g ai/ha; scale of 0 to 100 where 0 is no effect and 100 is complete control; 13 to 15 days
Outline: as §3

[13] = system: rice (Oryza sativa); experiment: Test C flooded paddy test plant response; settings: Flood, 250 g ai/ha; scale of 0 to 100 where 0 is no effect and 100 is complete control; 13 to 15 days
Outline: as §3

[14] = system: small-flower umbrella sedge (Cyperus difformis); experiment: Test C flooded paddy test plant response; settings: Flood, 250 g ai/ha; scale of 0 to 100 where 0 is no effect and 100 is complete control; 13 to 15 days
Outline: as §3

[15] = system: chickweed (common chickweed, Stellaria media); experiment: Test D postemergence plant response
Outline: (§4)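 Visual 0–100 rating vs controls (0 = no effect, 100 = complete control), scored 13–15 d after postemergence spray. Plants 1- to 4-leaf stage (2–18 cm), potted in peat/vermiculite mix, kept in greenhouse.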

[16] = system: kochia (Kochia scoparia); experiment: Test D postemergence plant response
Outline: as §4

[17] = system: wild oat (Avena fatua); experiment: Test D postemergence plant response
Outline: as §4

[18] = 31 g ai/ha, Preemergence, 0 to 100 scale where 0 is no effect and 100 is complete control
[19] = 125 g ai/ha, postemergence, 0 to 100 scale, 0 no effect, 100 complete control
[20] = Postemergence, 31 g ai/ha, 0 to 100 scale (0 no effect, 100 complete control)
[21] = Preemergence, 125 g ai/ha, 0 to 100 scale (0 no effect, 100 complete control)
[22] = 31 g ai/ha, scale 0 to 100 (0 no effect, 100 complete control)
[23] = 62 g ai/ha, scale 0 to 100, 0 no effect, 100 complete control
[24] = 125 g ai/ha, scale 0 to 100, 0 no effect, 100 complete control

Cc1cc(-c2c(F)cccc2Oc2ncc(Br)cn2)on1 [Compound 230]
Plant response rating, Ryegrass, Italian [1, 18]: 0
Plant response rating, Ryegrass, Italian [1, 19]: 0
Plant response rating, Ryegrass, Italian [1, 20]: 0
Ryegrass, Italian plant response rating [1, 21]: 0
Plant response rating, Barnyardgrass [2, 18]: 10
Plant response rating, Barnyardgrass [2, 19]: 60
Plant response rating, Barnyardgrass [2, 20]: 0
Barnyardgrass plant response rating [2, 21]: 70
Plant response rating, Corn [3, 19]: 10
Plant response rating, Corn [3, 20]: 0
Plant response rating, Foxtail, Giant [4, 18]: 60
Plant response rating, Foxtail, Giant [4, 19]: 70
Plant response rating, Foxtail, Giant [4, 20]: 0
Foxtail, Giant plant response rating [4, 21]: 90
Plant response rating, Kochia [5, 18]: 60
Plant response rating, Kochia [5, 19]: 100
Plant response rating, Kochia [5, 20]: 80
Kochia plant response rating [5, 21]: 100
Plant response rating, Pigweed [6, 18]: 90
Plant response rating, Pigweed [6, 19]: 90
Plant response rating, Pigweed [6, 20]: 60
Pigweed plant response rating [6, 21]: 100
Plant response rating, Ragweed [7, 18]: 20
Plant response rating, Ragweed [7, 19]: 100
Plant response rating, Ragweed [7, 20]: 70
Ragweed plant response rating [7, 21]: 80
Plant response rating, Wheat [8, 19]: 10
Plant response rating, Wheat [8, 20]: 0
Plant response rating, Blackgrass [9, 19]: 70
Plant response rating, Blackgrass [9, 20]: 20
Plant response rating, Galium [10, 19]: 100
Plant response rating, Galium [10, 20]: 80
Barnyardgrass plant response rating [11]: 40
Ducksalad plant response rating [12]: 85
Rice plant response rating [13]: 20
Sedge, Umbrella plant response rating [14]: 85
Plant response rating (scale 0 to 100), Chickweed ([15]; 16 g ai/ha): 65
Chickweed plant response rating [15, 22]: 65
Chickweed plant response rating [15, 23]: 75
Plant response rating, Chickweed [15, 24]: 80
Plant response rating (scale 0 to 100), Kochia ([16]; 16 g ai/ha): 65
Kochia plant response rating [16, 22]: 85
Kochia plant response rating [16, 23]: 100
Plant response rating, Kochia [16, 24]: 100
Plant response rating (scale 0 to 100), Oat, Wild ([17]; 16 g ai/ha): 0
Oat, Wild plant response rating [17, 22]: 0
Oat, Wild plant response rating [17, 23]: 5
Plant response rating, Oat, Wild [17, 24]: 10
